Laboratory results taken from patent US11964973B2 (priority 2019, dated 2024).
Read-outs that look alike come from different tables or passages of the source.

Tests used:
DGKα = DGKα (Homo sapiens (Human), UniProt P23743); test: biochemical; format: biochemical; conditions: liposome (LIPGLO) assay; read-out: DGKα LIPGLO IC50
human DGKζ = human DGKζ (Homo sapiens (Human), UniProt Q13574); test: biochemical; format: biochemical; conditions: read-out: DGKζ LIPGLO IC50
naïve human CD8 T cells = test: CellTiter-Glo CD8 T cell proliferation assay; format: cell-based; conditions: read-out: CD8 GLO Normalized EC50
Procedure: Assay 4: CellTiter-Glo CD8 T Cell Proliferation Assay
Frozen naïve human CD8 T cells were thawed in RPMI+10% FBS, incubated for 2 h in 37° C., and counted. The 384-well tissue culture plate was coated overnight at 4° C. with 20 μl anti-human CD3 at 0.1 μg/mL in plain RPMI, which was removed off the plate before 20 k/40 μL CD8 T cells with 0.5 μg/ml soluble anti-human CD28 were added to each well. The compounds were echoed to the cell plate immediately after the cells were plated. After 72 h incubation at 37° C. incubator, 10 μL CellTiter-glo reagent (Promega catalog number G7570) was added to each well. The plate was vigorously shaken for 5 mins, incubated at room temperature for another 15 mins and read on Envision for CD8 T cell proliferation. In analysis, 0.1 μg/mL anti-CD3 and 0.5 μg/mL anti-CD28 stimulated CD8 T cell signal was background.

[1] = system: OT-1 CD8+ T cells with SIINFEKL-loaded MC38 tumor cells; test: Murine cytotoxic T lymphocyte assay (IFN-γ); format: cell-based, mouse; conditions: murine cytotoxic T lymphocyte, IFN-γ, read-out: msCTL INFg IC50
Text: Assay 6: Murine Cytotoxic T Lymphocyte Assay
An antigen-specific cytolytic T-cell (CTL) assay was developed to evaluate functionally the ability of DGKα and DGKζ inhibitors to enhance effector T cell mediated tumor cell killing activity. CD8+ T-cells isolated from the OT-1 transgenic mouse recognize antigen presenting cells, MC38, that present the ovalbumin derived peptide […]. Recognition of the cognate antigen initiates the cytolytic activity of the OT-1 antigen-specific CD8+ T cells.
Functional CTL cells were generated as follows: OT-1 splenocytes from 8-12 week old mice were isolated and expanded in the presence of the […] peptide at 1 μg/mL and mIL2 at 10 U/mL. After three days, fresh media with […] was added. On day 5 of the expansion, the CD8+ T cells were isolated and ready for use. Activated CTL cells may be stored frozen for 6 months. Separately, one million MC38 tumor cells were pulsed with 1 μg/mL of […]-OVA peptide for 3 hours at 37° C. The cells were washed (3×) with fresh media to remove excess peptide. Finally, CTL cells that were pretreated with DGK inhibitors for 1 hour in a 96-well U bottom plate were combined with the antigen loaded MC38 tumor cells at a 1:10 ratio. The cells were then spun at 700 rpm for 5 min and placed in an incubator overnight at 37° C. After 24 hours, the supernatant was collected for analysis of IFN-γ cytokine levels by AlphaLisa purchased from Perkin Elmer.

[2] = system: Human venous whole blood (IFN-γ); test: Human whole blood IFN-γ assay; format: cell-based; conditions: Homo sapiens, 24 h, human whole blood, anti-CD3 plus anti-CD28, 24 hours; read-out: INFg Whole Blood Normalized Agonist EC50
Procedure: Assay 10: Human Whole Blood IFN-γ Assay
Human venous whole blood (22.5 μL per well), obtained from healthy donors, was pre-treated with compounds for one hour at 37° C. in a humidified 95% air/5% CO2 incubator. The blood was stimulated with 2.5 μL anti-human CD3 and anti-CD28 mAb at a final concentration of 1 μg/mL each for 24 hours at 37° C. IFN-γ in the supernatants was measured using AlphLISA kit (Cat #AL217).

Chain of human DGKζ (Q13574 whole entry, looked up): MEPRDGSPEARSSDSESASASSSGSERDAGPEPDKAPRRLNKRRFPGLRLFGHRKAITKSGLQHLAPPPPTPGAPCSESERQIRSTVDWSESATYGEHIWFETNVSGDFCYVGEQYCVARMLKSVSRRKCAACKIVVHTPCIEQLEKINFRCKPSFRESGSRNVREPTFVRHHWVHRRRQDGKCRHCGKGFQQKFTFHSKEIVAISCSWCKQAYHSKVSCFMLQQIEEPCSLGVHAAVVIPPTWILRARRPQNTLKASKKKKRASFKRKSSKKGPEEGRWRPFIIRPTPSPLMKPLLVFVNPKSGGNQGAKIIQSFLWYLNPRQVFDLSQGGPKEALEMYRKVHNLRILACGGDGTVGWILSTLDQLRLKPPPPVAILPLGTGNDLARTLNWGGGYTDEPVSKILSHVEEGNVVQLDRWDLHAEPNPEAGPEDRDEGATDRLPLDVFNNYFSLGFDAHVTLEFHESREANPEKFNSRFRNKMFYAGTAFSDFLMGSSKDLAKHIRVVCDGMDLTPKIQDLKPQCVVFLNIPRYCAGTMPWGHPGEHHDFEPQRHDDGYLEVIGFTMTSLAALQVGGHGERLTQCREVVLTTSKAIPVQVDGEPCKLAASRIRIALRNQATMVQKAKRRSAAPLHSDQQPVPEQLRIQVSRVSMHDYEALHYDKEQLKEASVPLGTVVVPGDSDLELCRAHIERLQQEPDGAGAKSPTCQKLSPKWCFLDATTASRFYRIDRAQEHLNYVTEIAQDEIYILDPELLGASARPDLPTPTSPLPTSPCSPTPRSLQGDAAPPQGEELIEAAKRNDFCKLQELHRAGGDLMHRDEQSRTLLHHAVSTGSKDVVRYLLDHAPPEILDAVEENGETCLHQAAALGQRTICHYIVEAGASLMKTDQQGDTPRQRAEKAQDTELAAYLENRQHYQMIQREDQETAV
Chain of DGKα (P23743 whole entry, looked up): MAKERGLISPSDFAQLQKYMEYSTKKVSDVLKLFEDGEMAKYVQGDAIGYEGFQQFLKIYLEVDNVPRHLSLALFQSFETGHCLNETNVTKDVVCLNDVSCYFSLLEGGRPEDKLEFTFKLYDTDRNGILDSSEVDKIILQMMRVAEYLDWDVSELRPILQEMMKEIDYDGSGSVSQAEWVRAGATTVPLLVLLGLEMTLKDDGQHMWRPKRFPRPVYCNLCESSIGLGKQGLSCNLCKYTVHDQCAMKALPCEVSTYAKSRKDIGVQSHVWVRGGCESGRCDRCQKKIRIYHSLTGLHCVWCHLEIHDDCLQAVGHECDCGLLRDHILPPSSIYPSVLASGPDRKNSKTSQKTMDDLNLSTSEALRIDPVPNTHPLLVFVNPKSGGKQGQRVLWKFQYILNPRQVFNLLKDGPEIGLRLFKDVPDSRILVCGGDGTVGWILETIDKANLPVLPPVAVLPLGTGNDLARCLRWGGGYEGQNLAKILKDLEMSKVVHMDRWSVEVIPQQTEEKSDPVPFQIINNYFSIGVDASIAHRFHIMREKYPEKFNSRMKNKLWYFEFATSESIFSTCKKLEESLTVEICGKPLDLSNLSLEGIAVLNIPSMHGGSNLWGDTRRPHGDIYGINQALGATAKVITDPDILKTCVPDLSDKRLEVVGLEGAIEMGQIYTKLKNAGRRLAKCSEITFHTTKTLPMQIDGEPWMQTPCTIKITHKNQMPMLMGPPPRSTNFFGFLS

| Structure (SMILES) | IC50 (DGKα) [µM] | IC50 (human DGKζ; liposome (LIPGLO) assay) [µM] | EC50 (naïve human CD8 T cells; Homo sapiens) [µM] | IC50 ([1]; Mus musculus, MC-38) [µM] | EC50 [2] [µM] | IC50 (human DGKζ) [µM] | EC50 (naïve human CD8 T cells) [µM] | IC50 [1] [µM] |
| --- | --- | --- | --- | --- | --- | --- | --- | --- |
| Cn1c(=O)c(C#N)c(N2CCC(Oc3ccc(OC(F)(F)F)c(F)c3)CC2)c2nc(Cl)ccc21 [Example 17, 6-chloro-4-(4-(3-fluoro-4-(trifluoromethoxy)phenoxy)piperidin-1-yl)-1-methyl-2-oxo-1,2-dihydro-1,5-naphthyridine-3-carbonitrile] | 1.1 | 240 | 0.47 | 1.1 | 10 |  |  |  |
| Cn1c(=O)c(C#N)c(N2CCC(Oc3ccc(F)c(F)c3)CC2)c2nc(Cl)ccc21 [Example 12, 6-chloro-4-(4-(3,4-difluorophenoxy)piperidin-1-yl)-1-methyl-2-oxo-1,2-dihydro-1,5-naphthyridine-3-carbonitrile] | 3.2 | 27 | 2.3 | 3.8 | 5 |  |  |  |
| Cc1cc(F)cc(OC2CCN(c3c([N+](=O)[O-])c(=O)n(C)c4ccc(F)cc34)CC2)c1 [Example 1, 6-fluoro-4-(4-(3-fluoro-5-methylphenoxy)piperidin-1-yl)-1-methyl-3-nitroquinolin-2(1H)-one] | 0.24 | 100 | 1.6 | 5.2 | 10 |  |  |  |
| Cn1c(=O)c([N+](=O)[O-])c(N2CCC(Oc3ccc(OC(F)(F)F)cc3)CC2)c2cc(F)ccc21 [Example 3, 6-fluoro-1-methyl-3-nitro-4-(4-(4-(trifluoromethoxy)phenoxy)piperidin-1-yl)quinolin-2(1H)-one] | 0.11 | 240 | 0.49 | 1.5 | 10 |  |  |  |
| Cn1c(=O)c(C#N)c(N2CCC(Oc3ccc(OC(F)(F)F)cc3)CC2)c2nc(C#N)ccc21 [Example 50, 5-methyl-6-oxo-8-(4-(4-(trifluoromethoxy)phenoxy)piperidin-1-yl)-5,6-dihydro-1,5-naphthyridine-2,7-dicarbonitrile] | 1.6 | 12 | 0.055 | 0.99 | 5 |  |  |  |
| COc1cc(OC2CCN(c3c(C#N)c(=O)n(C)c4ccc(Cl)nc34)CC2)ccc1Cl [Example 39, 6-chloro-4-(4-(4-chloro-3-methoxyphenoxy)piperidin-1-yl)-1-methyl-2-oxo-1,2-dihydro-1,5-naphthyridine-3-carbonitrile] | 0.35 | 14 | 0.13 | 3.7 |  |  |  |  |
| CN(C)C(=O)c1ccc(OC2CCN(c3c(C#N)c(=O)n(C)c4ccc(Cl)nc34)CC2)cc1 [Example 25, 4-((1-(6-chloro-3-cyano-1-methyl-2-oxo-1,2-dihydro-1,5-naphthyridin-4-yl)piperidin-4-yl)oxy)-N,N-dimethylbenzamide] | 0.73 | 240 | 1.2 | 10 |  |  |  |  |
| Cc1cc(OC(F)(F)F)ccc1OC1CCN(c2c(C#N)c(=O)n(C)c3ccc(Cl)nc23)CC1 [Example 29, -chloro-1-methyl-4-(4-(2-methyl-4-(trifluoromethoxy)phenoxy)piperidin-1-yl)-2-oxo-1,2-dihydro-1,5-naphthyridine-3-carbonitrile] | 3.8 |  |  |  |  | 240 | 5.9 | 10 |
| COc1ccc(OC2CCN(c3c(C#N)c(=O)n(C)c4ccc(Cl)nc34)CC2)cc1 [Example 14, 6-chloro-4-(4-(4-methoxyphenoxy)piperidin-1-yl)-1-methyl-2-oxo-1,2-dihydro-1,5-naphthyridine-3-carbonitrile] | 0.25 | 13 | 0.28 | 0.83 | 7 |  |  |  |
| Cn1c(=O)c(C#N)c(N2CCC(Oc3ccccc3C(F)(F)F)CC2)c2nc(Cl)ccc21 [Example 11, 6-chloro-1-methyl-2-oxo-4-(4-(2-(trifluoromethyl)phenoxy)piperidin-1-yl)-1,2-dihydro-1,5-naphthyridine-3-carbonitrile] | 12 | 150 | 10 | 0.83 | 10 |  |  |  |
| Cn1c(=O)c(C#N)c(N2CCC(Oc3ccc(OC(F)(F)F)cc3Cl)CC2)c2nc(Cl)ccc21 [Example 41, 6-chloro-4-(4-(2-chloro-4-(trifluoromethoxy)phenoxy)piperidin-1-yl)-1-methyl-2-oxo-1,2-dihydro-1,5-naphthyridine-3-carbonitrile] | 1.1 | 23 | 0.21 | 10 |  |  |  |  |
| Cn1c(=O)c(C#N)c(N2CCC(Oc3ccc(C#N)c(Cl)c3)CC2)c2nc(Cl)ccc21 [Example 38, 6-chloro-4-(4-(3-chloro-4-cyanophenoxy)piperidin-1-yl)-1-methyl-2-oxo-1,2-dihydro-1,5-naphthyridine-3-carbonitrile] | 1.8 | 9 | 1.6 | 10 |  |  |  |  |
| Cn1c(=O)c(C#N)c(N2CCC(Oc3cccc(OC(F)(F)F)c3)CC2)c2nc(Cl)ccc21 [Example 13, 6-chloro-1-methyl-2-oxo-4-(4-(3-(trifluoromethoxy)phenoxy)piperidin-1-yl)-1,2-dihydro-1,5-naphthyridine-3-carbonitrile] | 2 | 240 | 1.2 | 1.5 | 5 |  |  |  |
| Cc1ccc(OC2CCN(c3c(C#N)c(=O)n(C)c4ccc(Cl)nc34)CC2)cc1Cl [Example 40, 6-chloro-4-(4-(3-chloro-4-methylphenoxy)piperidin-1-yl)-1-methyl-2-oxo-1,2-dihydro-1,5-naphthyridine-3-carbonitrile] | 0.74 | 9 | 1.2 | 10 |  |  |  |  |
| Cn1c(=O)c(C#N)c(N2CCC(Oc3ccc(OC(C)(C)C)cc3)CC2)c2nc(Cl)ccc21 [Example 31, 4-(4-(4-(tert-butoxy)phenoxy)piperidin-1-yl)-6-chloro-1-methyl-2-oxo-1,2-dihydro-1,5-naphthyridine-3-carbonitrile] | 0.28 | 11 | 0.044 | 10 |  |  |  |  |
| COc1cccc(OC2CCN(c3c(C#N)c(=O)n(C)c4ccc(Cl)nc34)CC2)c1 [Example 10, 6-chloro-4-(4-(3-methoxyphenoxy)piperidin-1-yl)-1-methyl-2-oxo-1,2-dihydro-1,5-naphthyridine-3-carbonitrile] | 0.15 | 2.8 | 0.14 | 4.5 | 5 |  |  |  |
| COc1ccc2c(n1)c(N1CCC(Oc3ccc(OC(F)(F)F)cc3)CC1)c(C#N)c(=O)n2C [Example 48, 6-methoxy-1-methyl-2-oxo-4-(4-(4-(trifluoromethoxy)phenoxy)piperidin-1-yl)-1,2-dihydro-1,5-naphthyridine-3-carbonitrile] | 2.7 | 3.4 | 0.13 | 0.27 | 6.4 |  |  |  |
